Columns and labels:
Format in all cases: cell-based
[1] = test system: BT474, SKBR3, AU565 and SUM190 cells; test: Apoptotic cell death (Annexin V FACS) in parental lapatinib-sensitive lines; details: all four parental sensitive cell lines
Experimental: FIG. 2 is a set of graphs showing the percentage of cells undergoing apoptotic cell death for each of the four cell lines and their matched resistant cell line in the presence or absence of lapatinib and/or an MDM2 inhibitor, MI-219, as measured by FACS analysis for Annexin V. Results are expressed as mean +/− SEM of Annexin V positive cells.
BT474, SKBR3, and AU565 cells were obtained from ATCC. SUM190 cells were obtained from Asterand, Inc. All cell lines were cultured in RPMI medium containing 10% fetal bovine serum (FBS). Lapatinib-resistant cells (rBT474, rSKBR3, rAU565, and rSUM190) were established as previously described^14. Cobleigh, et al. J. Clin. Oncol. 17, 2639-2648 (1999). Lapatinib-resistant cells were grown in the presence of 1 μM lapatinib unless otherwise stated.

[2] = test system: caspase-9 / caspase-3 activation; test: Cytochrome c-induced caspase activation in cell lysates; details: lysates of resistant cells cultured in the presence of lapatinib
Experimental: Cell lysates for apoptotic assays were prepared as described previously using buffer A (20 mM HEPES [pH 7.4], 10 mM KCl, 1.5 mM MgCl2, 1 mM EDTA, 1 mM EGTA, 1 mM dithiothreitol, 1 mM phenylmethylsulfonyl fluoride, 5 μg/ml leupeptin, and 5 μg/ml aprotinin). […]
Colorimetric caspase assays were performed by incubating cell lysate (3 μl) in 90 μl DEVDase buffer (50 mM HEPES [pH 7.5], 100 mMNaCl, 0.1% CHAPS, 10 mMDTT, 1 mMEDTA, 10% glycerol) containing the peptide substrate, Ac-DEVD-pNA (200 mM final concentration; BIOMOL Research Labs). […] Absorbance of the colorimetric product was measured at 405 nm using a Bio-Rad microplate reader.

PP5 = test: Immunoblot of PP5 protein levels; details: 1 μM lapatinib
Experimental: FIG. 7 is a set of photographs and graphs showing PP5 stability and post-cytochrome c protection in lapatinib-resistant cells. FIG. 7A is an immunoblot for caspase-9 (cleaved and non-cleaved) and cleaved caspase-3 (C9 and C3, respectively) showing rBT474 cells cultured in the absence or presence of 1 μM lapatinib for one week, as compared to BT474 cells which were maintained without lapatinib. Cytosolic lysates prepared from BT474 or rBT474 were incubated with 1 mM dATP and various amounts of cytochrome c (CC). FIG. 7B is a set of graphs showing Caspase 3 activity in the indicated cell lysates over time. Caspase-3 activity was assayed by measuring cleavage of DEVD-pNA following incubation of the cell lysates with 1 mM dATP and various concentrations of cytochrome c. FIG. 7C is an autoradiograph of ^32P and an immunoblot showing the percentage of the protein phosphorylated. In the presence of [γ-^32P]ATP, recombinant His-tagged HSP90β proteins (wild type and the indicated mutants) on nickel beads were incubated with the HSP90β-targeted kinase casein kinase 2. FIG. 7D is an autoradiograph and corresponding immunoblot showing BT474 or rBT474 cells after being cultured in the absence or presence of 1 μM lapatinib for 24 hours in the presence of z-VAD. Recombinant His-tagged HSP90β protein on nickel beads was incubated with the cell lysates in the presence of [γ-^32P]ATP. FIG. 7E is an immunoblot for phospho-Hsp90β (Ser226) and total HSP90β at various time points. […] FIG. 7F is a set of graphs showing FACS analysis for the phosphorylation status of Hsp90β (Ser255). BT474 or rBT474 cells cultured in the presence of 1 μM lapatinib for 24 hours were fixed with formaldehyde and incubated with phospho-Hsp90β (Ser255) antibody followed by an Alexa488-conjugated secondary antibody. FIG. 7G is an immunoblot for PP5 and actin at the indicated time points. BT474 and rBT474 (left) or AU565 and rAU565 cells (right) were treated with 1 μM lapatinib. FIG. 7H is an autoradiograph of immunoprecipitated FLAG-PP5 using an anti-FLAG agarose. […]

Erk1/2 = test: Immunoblot of phospho-Erk1/2 in lapatinib-treated cells; details: sensitive and resistant cells, 1 μM lapatinib, 50 μM z-VAD
Experimental: FIG. 3B is a set of immunoblots showing the levels of HER2 and phospho-HER2 in untreated cells and cells treated with lapatinib. Cells were treated with or without lapatinib (1 μM) for 24 hours in the presence of the caspase inhibitor z-VAD (50 μM). The cells were harvested and cell lysates were immunoblotted using antibodies against phospho-HER2 (Y877) and total HER2. FIG. 3C is an immunoblot for phospho-AKT (T308) and total AKT. BT474 and rBT474 cells were treated with 1 μM lapatinib in the presence of 50 μM z-VAD. At the indicated time points, the cells were harvested and immunoblotted. FIG. 3D is an immunoblot for phospho-Erl1/2(T202/Y204) and total Erk1/2. BT474 and rBT474 cells were treated with 1 μM lapatinib in the presence of 50 μM z-VAD. At the indicated time points, the cells were harvested and immunoblotted.

Compound: CS(=O)(=O)CCNCc1ccc(-c2ccc3ncnc(Nc4ccc(OCc5cccc(F)c5)c(Cl)c4)c3c2)o1 [lapatinib]
- apoptotic cell death in response to lapatinib [1]: died from apoptosis
- cytochrome c-induced caspase activation [2]: strong defects in caspase activation
- PP5 levels (PP5; resistant cells): unaltered
- PP5 levels (PP5; sensitive cells): gradual decrease
- phosphorylation of Erk1/2 (Erk1/2): attenuated
